{"source": "patent US8618151B2", "about": "“Inhibitors of HCV NS5A” (Presidio Pharmaceuticals, Inc., priority 2008, dated 2013)", "note": "pEC50: −log10 of the molar value.", "data": [{"system": "HCV genotype 1b replicon", "experiment": "HCV replicon assay (1b_Huh-Luc/Neo-ET cell line, luciferase readout)", "type": "cell-based", "conditions": "Hepatitis C virus, Huh-7, 72 h, read-out: Inhibition of HCV genotype 1b", "protocol": "Biological activity of the compounds of the invention was determined using an HCV replicon assay. The 1b_Huh-Luc/Neo-ET cell line persistently expressing a bicistronic genotype 1b replicon in Huh 7 cells was obtained from ReBLikon GMBH. This cell line was used to test compound inhibition using luciferase enzyme activity readout as a measurement of compound inhibition of replicon levels.\nOn Day 1 (the day after plating), each compound is added in triplicate to the cells. Plates incubated for 72 h prior to running the luciferase assay. Enzyme activity was measured using a Bright-Glo Kit (cat. number E2620) manufactured by Promega Corporation. The following equation was used to generate a percent control value for each compound. % Control=(Average Compound Value/Average Control)*100\nThe EC50 value was determined using GraphPad Prism and the following equation: Y=Bottom+(Top−Bottom)/1+10^((Log IC50−X)*HillSlope))\nEC50 values of compounds are repeated several times in the replicon assay.", "values": [{"compound": "COC(=O)N[C@@H](C(=O)N1CCC[C@H]1c1nc(-c2cnc3cc(-c4ccc(-c5cnc([C@@H]6CCCN6C(=O)[C@H](NC(=O)OC)c6ccccc6)[nH]5)cn4)ccc3c2)c[nH]1)c1ccccc1", "note": "[compound 80]", "pEC50": "> 9.00"}, {"compound": "COC(=O)N[C@H](C(=O)N1CCC[C@H]1c1ncc(-c2ccc(-c3ccc4cc(-c5c[nH]c([C@@H]6CCCN6C(=O)[C@H](NC(=O)OC6CCOCC6)c6ccccc6)n5)cnc4c3)nc2)[nH]1)C(C)C", "note": "[compound 81]", "pEC50": "> 9.00"}, {"compound": "COC(=O)N[C@H](C(=O)N1CCC[C@H]1c1ncc(-c2ccc(-c3ccc4cc(-c5c[nH]c([C@@H]6CCCN6C(=O)[C@H](NC(=O)OC(C)(C)C)c6ccccc6)n5)cnc4c3)nc2)[nH]1)C(C)C", "note": "[compound 82]", "pEC50": "> 9.00"}, {"compound": "COC(=O)N[C@H](C(=O)N1CCC[C@H]1c1nc(-c2ccc3cc(-c4ccc(-c5cnc([C@@H]6CCCN6C(=O)[C@@H](NC(=O)OC)C(C)C)[nH]5)nc4)ccc3c2)c[nH]1)C(C)C", "note": "[compound 83]", "pEC50": "> 9.00"}, {"compound": "COC(=O)N[C@H](C(=O)N1CCC[C@H]1c1nc(-c2ccc3cc(-c4ccc(-c5cnc([C@@H]6CCCN6C(=O)[C@@H](NC(=O)OC)C6CCOCC6)[nH]5)nc4)ccc3c2)c[nH]1)C(C)C", "note": "[compound 84]", "pEC50": "> 9.00"}, {"compound": "COC(=O)N[C@H](C(=O)N1CCC[C@H]1c1nc(-c2ccc3cc(-c4ccc(-c5cnc([C@@H]6CCCN6C(=O)[C@@H](NC(=O)OC)C(C)C)[nH]5)cc4C)ccc3c2)c[nH]1)C(C)C", "note": "[compound 85]", "pEC50": "> 9.00"}, {"compound": "COC(=O)N[C@H](C(=O)N1CCC[C@H]1c1nc(-c2ccc3cc(-c4ccc(-c5cnc([C@@H]6CCCN6C(=O)[C@@H](NC(=O)OC)C6CCOCC6)[nH]5)cc4C)ccc3c2)c[nH]1)C(C)C", "note": "[compound 86]", "pEC50": "> 9.00"}, {"compound": "COC(=O)N[C@H](C(=O)N1CCC[C@H]1c1ncc(-c2ccc(-c3ccc4cc(-c5c[nH]c([C@@H]6CCCN6C(=O)[C@H](NC(=O)OC)c6ccccc6)n5)ccc4c3)c(C)c2)[nH]1)C(C)C", "note": "[compound 87]", "pEC50": "> 9.00"}, {"compound": "COC(=O)N[C@H](C(=O)N1CCC[C@H]1c1nc(-c2cnc3cc(-c4ccc(-c5cnc([C@@H]6CCCN6C(=O)[C@H](NC(=O)OC6CCOCC6)c6ccccc6)[nH]5)cc4)ccc3c2)c[nH]1)C(C)C", "note": "[compound 88]", "pEC50": "> 9.00"}, {"compound": "COC(=O)N[C@H](C(=O)N1CCC[C@H]1c1nc(-c2cnc3cc(-c4ccc(-c5cnc([C@@H]6CCCN6C(=O)[C@H](NC(=O)OC6CCOCC6)c6ccccc6)[nH]5)cc4)ccc3c2)c[nH]1)C1CCOCC1", "note": "[compound 89]", "pEC50": "> 9.00"}, {"compound": "COC(=O)N[C@H](C(=O)N1CCC[C@H]1c1ncc(-c2ccc(-c3ccc4cc(-c5c[nH]c([C@@H]6CCCN6C(=O)[C@H](NC(=O)OC)c6ccccc6)n5)ccc4n3)cc2)[nH]1)C1CCOCC1", "note": "[compound 90]", "pEC50": "> 9.00"}, {"compound": "COC(=O)N[C@H](C(=O)N1CCC[C@H]1c1ncc(-c2ccc(-c3ccc4cc(-c5c[nH]c([C@@H]6CCCN6C(=O)[C@H](NC(=O)OC(C)(C)C)c6ccccc6)n5)ccc4n3)cc2)[nH]1)C1CCOCC1", "note": "[compound 91]", "pEC50": "> 9.00"}, {"compound": "COC(=O)N[C@H](C(=O)N1CCC[C@H]1c1ncc(-c2ccc(-c3ccc4cc(-c5c[nH]c([C@@H]6CCCN6C(=O)[C@H](NC(=O)OC6CCOCC6)c6ccccc6)n5)ccc4n3)cc2)[nH]1)C1CCOCC1", "note": "[compound 92]", "pEC50": "> 9.00"}, {"compound": "COC(=O)N[C@H](C(=O)N1CCC[C@H]1c1nc(-c2cnc3cc(-c4ccc(-c5cnc([C@@H]6CCCN6C(=O)[C@@H](NC(=O)OC)C(C)C)[nH]5)nc4)ccc3c2)c[nH]1)C(C)C", "note": "[compound 93]", "pEC50": "> 9.00"}, {"compound": "COC(=O)N[C@H](C(=O)N1CCC[C@H]1c1ncc(-c2ccc(-c3ccc4cc(-c5c[nH]c([C@@H]6CCCN6C(=O)[C@H](NC(=O)OC)c6ccccc6)n5)cnc4c3)cn2)[nH]1)C(C)C", "note": "[compound 94]", "pEC50": "> 9.00"}, {"compound": "COC(=O)N[C@H](C(=O)N1CCC[C@H]1c1ncc(-c2ccc(-c3ccc4cc(-c5c[nH]c([C@@H]6CCCN6C(=O)[C@@H](NC(=O)OC)C6CCOCC6)n5)cnc4c3)cn2)[nH]1)C(C)C", "note": "[compound 95]", "pEC50": "> 9.00"}, {"compound": "COC(=O)N[C@H](C(=O)N1CCC[C@H]1c1nc(-c2ccc3nc(-c4ccc(-c5cnc([C@@H]6CCCN6C(=O)[C@@H](NC(=O)OC)C(C)C)[nH]5)cc4F)ccc3c2)c[nH]1)C(C)C", "note": "[compound 96]", "pEC50": "> 9.00"}, {"compound": "COC(=O)N[C@@H](C(=O)N1CCC[C@H]1c1nc(-c2ccc3nc(-c4ccc(-c5cnc([C@@H]6CCCN6C(=O)[C@H](NC(=O)OC)c6ccccc6)[nH]5)cc4F)ccc3c2)c[nH]1)c1ccccc1", "note": "[compound 97]", "pEC50": "> 9.00"}, {"compound": "COC(=O)N[C@H](C(=O)N1CCC[C@H]1c1nc(-c2ccc3nc(-c4ccc(-c5cnc([C@@H]6CCCN6C(=O)[C@@H](NC(=O)OC)C6CCOCC6)[nH]5)cc4F)ccc3c2)c[nH]1)C1CCOCC1", "note": "[compound 98]", "pEC50": "> 9.00"}, {"compound": "COC(=O)N[C@H](C(=O)N1CCC[C@H]1c1nc(-c2ccc3cc(-c4ccc(-c5cnc([C@@H]6CCCN6C(=O)[C@H](NC(=O)OC)c6ccccc6)[nH]5)cc4)ccc3c2)c[nH]1)C1CCOCC1", "note": "[compound 99]", "pEC50": "> 9.00"}, {"compound": "COC(=O)N[C@H](C(=O)N1CCC[C@H]1c1nc(-c2ccc3cc(-c4ccc(-c5cnc([C@@H]6CCCN6C(=O)[C@H](NC(=O)OC)c6ccccc6)[nH]5)cc4)ncc3c2)c[nH]1)C1CCOCC1", "note": "[compound 100]", "pEC50": "> 9.00"}, {"compound": "COC(=O)N[C@H](C(=O)N1CCC[C@H]1c1ncc(-c2ccc(-c3cc4ccc(-c5c[nH]c([C@@H]6CCCN6C(=O)[C@H](NC(=O)OC)c6ccccc6)n5)cc4cn3)cc2)[nH]1)C1CCOCC1", "note": "[compound 101]", "pEC50": "> 9.00"}, {"compound": "COC(=O)N[C@H](C(=O)N1CCC[C@H]1c1nc(-c2ccc3cc(-c4ccc(-c5cnc([C@@H]6CCCN6C(=O)[C@@H](NC(=O)OC)C(C)C)[nH]5)cc4)ccc3n2)c[nH]1)C(C)C", "note": "[compound 102]", "pEC50": "> 9.00"}, {"compound": "COC(=O)N[C@H](C(=O)N1CCC[C@H]1c1ncc(-c2ccc(-c3ccc4nc(-c5c[nH]c([C@@H]6CCCN6C(=O)[C@H](NC(=O)OC)c6ccccc6)n5)ccc4c3)cc2)[nH]1)C(C)C", "note": "[compound 103]", "pEC50": "> 9.00"}, {"compound": "COC(=O)N[C@H](C(=O)N1CCC[C@H]1c1ncc(-c2ccc(-c3ccc4cc(-c5c[nH]c([C@@H]6CCCN6C(=O)[C@@H](NC(=O)OC)C6CCOCC6)n5)ccc4c3)c(C)c2)[nH]1)C(C)C", "note": "[compound 104]", "pEC50": "> 9.00"}, {"compound": "COC(=O)N[C@H](C(=O)N1CCC[C@H]1c1ncc(-c2ccc(-c3ccc4cc(-c5c[nH]c([C@@H]6CCCN6C(=O)[C@H](NC(=O)OC)c6ccccc6)n5)ccc4c3)cc2)[nH]1)C1CCOCC1", "note": "[compound 105]", "pEC50": "> 9.00"}, {"compound": "COC(=O)N[C@H](C(=O)N1CCC[C@H]1c1ncc(-c2ccc(-c3ccc4cc(-c5c[nH]c([C@@H]6CCCN6C(=O)[C@H](NC(=O)OC)c6ccccc6)n5)ccc4c3)c(F)c2)[nH]1)C1CCOCC1", "note": "[compound 106]", "pEC50": "> 9.00"}, {"compound": "COC(=O)N[C@H](C(=O)N1CCC[C@H]1c1nc(-c2ccc3nc(-c4ccc(-c5cnc([C@@H]6CCCN6C(=O)[C@H](NC(=O)OC)c6ccccc6)[nH]5)cc4F)ccc3c2)c[nH]1)C(C)C", "note": "[compound 107]", "pEC50": "> 9.00"}, {"compound": "COC(=O)N[C@H](C(=O)N1CCC[C@H]1c1nc(-c2ccc3nc(-c4ccc(-c5cnc([C@@H]6CCCN6C(=O)[C@@H](NC(=O)OC)C6CCOCC6)[nH]5)c(F)c4)ccc3c2)c[nH]1)C1CCOCC1", "note": "[compound 108]", "pEC50": "> 9.00"}, {"compound": "COC(=O)N[C@@H](C(=O)N1CCC[C@H]1c1nc(-c2ccc3nc(-c4ccc(-c5cnc([C@@H]6CCCN6C(=O)[C@H](NC(=O)OC)c6ccccc6)[nH]5)c(F)c4)ccc3c2)c[nH]1)c1ccccc1", "note": "[compound 109]", "pEC50": "> 9.00"}, {"compound": "COC(=O)N[C@H](C(=O)N1CCC[C@H]1c1nc(-c2ccc3cc(-c4ccc(-c5cnc([C@@H]6CCCN6C(=O)[C@H](NC(=O)OC)c6ccsc6)[nH]5)cc4)ccc3c2)c[nH]1)C1CCOCC1", "note": "[compound 110]", "pEC50": "> 9.00"}, {"compound": "COC(=O)N[C@H](C(=O)N1CCC[C@H]1c1nc(-c2ccc3cc(-c4ccc(-c5cnc([C@@H]6CCCN6C(=O)[C@H](NC(=O)OC)c6ccc(F)cc6)[nH]5)cc4)ccc3c2)c[nH]1)C1CCOCC1", "note": "[compound 111]", "pEC50": "> 9.00"}, {"compound": "COC(=O)N[C@H](C(=O)N1CCC[C@H]1c1nc(-c2ccc3cc(-c4ccc(-c5cnc([C@@H]6CCCN6C(=O)[C@@H](NC(=O)OC6CCOCC6)c6ccccc6)[nH]5)cc4)ccc3c2)c[nH]1)C1CCOCC1", "note": "[compound 112]", "pEC50": "> 9.00"}, {"compound": "COC(=O)N[C@H](C(=O)N1CCC[C@H]1c1nc(-c2ccc3cc(-c4ccc(-c5cnc([C@@H]6CCCN6C(=O)[C@H](NC(=O)OC6CCOCC6)c6ccccc6)[nH]5)cc4)ccc3c2)c[nH]1)C1CCOCC1", "note": "[compound 113]", "pEC50": "> 9.00"}, {"compound": "COC(=O)N[C@H](C(=O)N1CCC[C@H]1c1nc(-c2ccc3cc(-c4ccc(-c5cnc([C@@H]6CCCN6C(=O)[C@H](NC(=O)OC)c6ccccc6)[nH]5)cc4F)ccc3c2)c[nH]1)C1CCOCC1", "note": "[compound 114]", "pEC50": "> 9.00"}, {"compound": "COC(=O)N[C@H](C(=O)N1CCC[C@H]1c1ncc(-c2ccc3cc(-c4ccc(-c5cnc([C@@H]6CCCN6C(=O)[C@H](NC(=O)OC)c6ccccc6)[nH]5)cc4)ccc3c2)[nH]1)[C@@H](C)OC", "note": "[compound 115]", "pEC50": "> 9.00"}, {"compound": "COC(=O)N[C@H](C(=O)N1CCC[C@H]1c1ncc(-c2ccc3cc(-c4ccc(-c5cnc([C@@H]6CCCN6C(=O)[C@@H](c6ccccc6)N6CCOCC6)[nH]5)cc4)ccc3c2)[nH]1)C(C)C", "note": "[compound 116]", "pEC50": "> 9.00"}, {"compound": "COC(=O)N[C@H](C(=O)N1CCC[C@H]1c1ncc(-c2ccc3cc(-c4ccc(-c5cnc([C@@H]6CCCN6C(=O)[C@H](NC(=O)OC6CCOCC6)c6ccccc6)[nH]5)cc4)ncc3c2)[nH]1)C1CCOCC1", "note": "[compound 117]", "pEC50": "> 9.00"}, {"compound": "COC(=O)N[C@H](C(=O)N1CCC[C@H]1c1ncc(-c2ccc3cc(-c4ccc(-c5cnc([C@@H]6CCCN6C(=O)[C@H](NC(=O)OC(C)(C)C)c6ccccc6)[nH]5)cc4)ncc3c2)[nH]1)C1CCOCC1", "note": "[compound 118]", "pEC50": "> 9.00"}]}]}
